Target: T1, LysMSs (S. solfataricus LysM) (Saccharolobus solfataricus, UniProt Q980W9)
T1 sequence (Q980W9 1-142): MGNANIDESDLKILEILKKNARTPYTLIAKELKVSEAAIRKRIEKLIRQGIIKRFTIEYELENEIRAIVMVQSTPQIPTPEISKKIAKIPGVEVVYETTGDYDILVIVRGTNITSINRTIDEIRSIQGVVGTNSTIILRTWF
Assay: EMSA, effect on LysM binding to […]-labelled gltB operator DNA
Conditions: gltB control region 167-bp fragment; effector 5 mM; 250 nM LysM

| SMILES | EMSA, effect on LysM binding to 32P-labelled gltB operator DNA |
| --- | --- |
| CC(C)[C@H](N)C(=O)O [L-valine] | arginine, glutamine, isoleucine, leucine, methionine and valine also specifically reduce LysM binding |
| CC[C@H](C)[C@H](N)C(=O)O [L-isoleucine] | arginine, glutamine, isoleucine, leucine, methionine and valine also specifically reduce LysM binding |
| CSCC[C@H](N)C(=O)O [L-methionine] | arginine, glutamine, isoleucine, leucine, methionine and valine also specifically reduce LysM binding |
| CC(C)C[C@H](N)C(=O)O [L-leucine] | arginine, glutamine, isoleucine, leucine, methionine and valine also specifically reduce LysM binding |
| NC(=O)CC[C@H](N)C(=O)O [L-glutamine] | arginine, glutamine, isoleucine, leucine, methionine and valine also specifically reduce LysM binding |

Same assay, conditions: gltB control region 167-bp fragment; weak effector, mM range

| SMILES | EMSA, effect on LysM binding to 32P-labelled gltB operator DNA |
| --- | --- |
| NC(=O)NCCC[C@H](N)C(=O)O [L-citrulline] | The effect of L-canavanine and L-citrulline was less pronounced |
| N=C(N)NOCC[C@H](N)C(=O)O [L-canavanine] | The effect of L-canavanine and L-citrulline was less pronounced |

Source: PMC3597687 (Nucleic Acids Research, 2013)
